According to ChEMBL document CHEMBL3112540, “Synthesis of halogenated 4-quinolones and evaluation of their antiplasmodial activity” (Bioorg Med Chem Lett, 2014):
Each block holds one compound with its values, some of them ahead of it. Active and inactive are the calls of the source. No cut-off for these calls is given here.

How the values were obtained:
CHO = assay: Cytotoxicity against CHO cells by MTT assay; type: cell-based; conditions: Cricetulus griseus
Candida albicans = assay: Antimicrobial activity against Candida albicans; type: functional, organism-based
Escherichia coli = assay: Antimicrobial activity against Escherichia coli; type: functional, organism-based
Staphylococcus aureus = assay: Antimicrobial activity against Staphylococcus aureus; type: functional, organism-based
Aspergillus flavus = assay: Antimicrobial activity against Aspergillus flavus; type: functional, organism-based
Plasmodium falciparum [1] = assay: Antiplasmodial activity chloroquine-sensitive Plasmodium falciparum NF54 by lactate dehydrogenase assay; type: functional, organism-based
in vitro = conditions: hamster
Description: Selectivity index, ratio of IC50 for CHO cells to IC50 for chloroquine-sensitive Plasmodium falciparum NF54

Plasmodium falciparum [2] = assay: Antiplasmodial activity chloroquine-resistant Plasmodium falciparum Dd2 by lactate dehydrogenase assay; type: functional, organism-based

Compound: CC[C@H]1CN2CCc3cc(OC)c(OC)cc3[C@@H]2C[C@@H]1C[C@H]1NCCc2cc(OC)c(OC)cc21 [EMETINE]
IC50 (CHO): 0.092 µM

IC50 (Plasmodium falciparum [1]): 35.2 µM
Compound: CC(Br)(CBr)Cn1cc(Br)c(=O)c2ccccc21 (stereo unspecified)
Activity (Candida albicans): inactive | Activity (Escherichia coli): inactive | Activity (Staphylococcus aureus): inactive | Activity (Aspergillus flavus): inactive

Compound: CC(Br)(CBr)Cn1cc(Br)c(=O)c2ccc(Cl)cc21 (stereo unspecified)
Activity (Candida albicans): inactive | Activity (Escherichia coli): inactive | selectivity ratio (in vitro): 10 | Activity (Staphylococcus aureus): inactive | IC50 (Plasmodium falciparum [2]): 4.02 µM | Activity (Aspergillus flavus): inactive | IC50 (CHO): 31.8 µM | IC50 (Plasmodium falciparum [1]): 3.18 µM

Compound: C[C@H]1[C@H](OC(=O)CCC(=O)O)O[C@@H]2O[C@@]3(C)CC[C@H]4[C@H](C)CC[C@@H]1[C@@]24OO3 [ARTESUNATE]
IC50 (Plasmodium falciparum [2]): 0.046 µM | IC50 (Plasmodium falciparum [1]): 0.005 µM
